Measurements from patent US7648977B2, “Pharmaceutical composition having a ruthenium oxalato compound and method of using the same” (The University of Hong Kong, priority 2005, dated 2010).

Tests used:
[1] = system: HIV-1 infected Hut/CCR5 cells; test: TUNEL assay, cytoprotective activity in HIV-1 infected Hut/CCR5 cells; assay type: cell-based; conditions: HIV-1 infected Hut/CCR5 cells, 0.5, 5 and 50 μM
Source text: The TUNEL reaction preferentially labels DNA strand breaks generated during apoptosis. This is done by labeling DNA strand breaks by terminal deoxynucleotidyl transferase (TdT), which catalyzes polymerization of labeled nucleotides to free 3′-OH DNA ends in a template-independent manner (TUNEL-reaction). The TUNEL method (In Situ Cell Death Detection Kit, Fluorescein, Roche) combined with flow cytometry was used for the measurement of apoptosis (Gorczyca et al. Cancer Res. (1993), 53, 1945). The quantitative analysis of 3′-OH ends was performed using the MDADS analysis program (Beckman Coulter).
HIV-1 infected Hut/CCR5 cells were treated with 2 (0.5, 5, and 50 μM) for 3 days. The cells were fixed (in 4% paraformaldehyde in PBS, pH 7.4) and permeabilisated (0.1% Triton X-100 in 0.1% sodium citrate), The cells were then rinsed twice with PBS and labeled with 50 μL TUNEL reaction mixture (50 μL Enzyme solution +450 μL Label solution) for 60 min. at 37° C. in a humidified atmosphere in dark. The samples were rinsed with PBS three times and resuspended in 1 mL PBS containing 5 μg/mL of PI and 0.1% RNAse. Flow cytometry was performed on a FACScan cytometry. The red (PI) and green (fluorescein) fluorescence emissions from each cell were measured.

[2] = system: HIV-1(IIIB); conditions: 0.5-50 μM, viral p24 antigen, FIG. 8
Method: GHOST/CXCR4 and PBMC cells in 24-well plate (5×10^5 cells/well) were pretreated with compounds (400 μL) for an hour at 37° C. and subsequently infected in triplicate with a panel of CCR5-tropic HIV-1 isolates (with the addition of 5 μL of HIV-1 stock to each well, total p24 content=1500 pg) for 3 h. Following infection, the cells were washed to remove residual viral inoculums and cultured in the presence of compounds (400 μL) for 3 or 7 days. Culture supernatants were harvested and viral replication was measured by determination of viral p24 antigen concentration by ELISA (HIV-1 p24 antigen Kit, Beckman Coulter). Compounds were tested in triplicate at 3 concentrations ranging from 0.5-50 μM. AZT was also examined as a reference standard.

[3] = target: HIV-1 RT (Human immunodeficiency virus type 1 group M subtype B, UniProt P04585); conditions: percentage luminescence relative to untreated control
Method: The inhibitory effect of different compounds on HIV-1 RT activities were assayed using a commercial assay kit (Reverse Transcriptase Assay, Chemiluminescent, Roche). […] (30 min.). The ELISA assays were conducted by following the manufacturer's instructions (Eberle and Seibl J. Virol. Methods (1992), 40, 347). In general, the indicated components were added to the corresponding wells of the microtitre plate from the kit and incubated for 1 h at 37° C. The solution in each well was then completely removed and the wells were rinsed five times with 250 μL of washing buffer per well. During each washing step, the washing buffer was left in the wells for a minimum of 30 seconds. The microtitre plate modules were covered and dried with a blotting paper, followed by the incubation with anti-DIG-POD working dilution was added (200 μL per well) for 1 h at 37° C. The solution was discarded followed by the washing and drying steps as described above. The POD substrate was added (200 μL per well) and was incubated at room temperature for 15 min. The chemiluminescent signal was measured and quantified using a microtitre plate chemiluminescence reader. The HIV-1 RT activities were evaluated based on percentage luminescence of the solutions relative to the negative control (untreated population).

[4] = system: HIV-1(BaL); conditions: Hut/CCR5 cells, 3 or 7 days, 0.5-50 μM, viral p24 antigen
Method: Following infection, the cells were washed to remove residual viral inoculums and cultured in the presence of compounds (400 μL) for 3 or 7 days. Culture supernatants were harvested and viral replication was measured by determination of viral p24 antigen concentration by ELISA (HIV-1 p24 antigen Kit, Beckman Coulter). Compounds were tested in triplicate at 3 concentrations ranging from 0.5-50 μM.

For Na7[Ru4(μ3-O)4(C2O4)6] [Complex 2], the “cytoprotective activity (TUNEL)” value [1] was “showed cytoprotective activity”, the “inhibition of HIV-1 replication in GHOST/CXCR4 cells” value [2] was “inhibited” and the “inhibition of HIV-1 replication in PBMC cells” value [2] was “inhibited”. The “inhibition of HIV-1 RT activity” value [3] was “inhibited” and the “inhibition of HIV-1(BaL) replication” value [4] was “inhibited”.
